In ChEMBL document CHEMBL5500370, “Discovery of potent and novel dual NAMPT/BRD4 inhibitors for efficient treatment of hepatocellular carcinoma” (Eur J Med Chem, 2024):
Active and inactive are the calls of the source. The rule behind the calls is not given here.

Assays:
[1] = tested on: Hep 3B2; assay: Induction of apoptosis in human Hep3B cells assessed as necrotic cells at 1 uM measured after 72 hrs by Annexin V-FITC/PI staining based flow cytometry (reference value: 2.74 %); assay type: functional
[2] = tested on: HCCLM3; assay: Antitumor activity against human HCCLM3 cells xenografted in BALB/c nude mouse assessed as tumor growth suppression administered intraperitoneally for 27 days; assay type: functional; conditions: dose 40-80 mg/kg, route ip, time 27.0 day
[3] = tested on: Hep 3B2; assay: Antimigratory activity in human Hep3B cells measured upto 24 hrs by transwell assay; assay type: functional, cell-based; conditions: dose 1-10 µM
[4] = tested on: Hep 3B2; assay: Induction of apoptosis in human Hep3B cells assessed as late apoptotic cells at 10 uM measured after 72 hrs by Annexin V-FITC/PI staining based flow cytometry (reference value: 1.05 %); assay type: functional
[5] = Toxicity in BALB/c nude mouse xenografted with human HCCLM3 cells assessed as body weight loss at 40 to 80 mg/kg, ip for 27 days; assay type: organism-based; conditions: in vivo, 648 h, dose 40-80 mg/kg, time 27 day
[6] = tested on: HCCLM3; assay: cells; conditions: Homo sapiens, HCCLM3, 120 h
[7] = tested on: Hep 3B2; assay: Induction of apoptosis in human Hep3B cells assessed as late apoptotic cells at 1 uM measured after 72 hrs by Annexin V-FITC/PI staining based flow cytometry (reference value: 1.05 %); assay type: functional
[8] = target: T1, Bromodomain-containing protein 4 (Homo sapiens, UniProt O60885); assay: Inhibition of BRD4 BD1/2 (unknown origin) incubated for 120 mins by TR-FRET assay
[9] = target: T2, Nicotinamide phosphoribosyltransferase (Homo sapiens, UniProt P43490); assay: Inhibition of NAMPT in human HCCLM3 cells assessed as decrease in NAD+ level at 10 uM measured after 72 hrs by WST-8 assay; assay type: cell-based
T2 sequence (P43490 whole entry, looked up): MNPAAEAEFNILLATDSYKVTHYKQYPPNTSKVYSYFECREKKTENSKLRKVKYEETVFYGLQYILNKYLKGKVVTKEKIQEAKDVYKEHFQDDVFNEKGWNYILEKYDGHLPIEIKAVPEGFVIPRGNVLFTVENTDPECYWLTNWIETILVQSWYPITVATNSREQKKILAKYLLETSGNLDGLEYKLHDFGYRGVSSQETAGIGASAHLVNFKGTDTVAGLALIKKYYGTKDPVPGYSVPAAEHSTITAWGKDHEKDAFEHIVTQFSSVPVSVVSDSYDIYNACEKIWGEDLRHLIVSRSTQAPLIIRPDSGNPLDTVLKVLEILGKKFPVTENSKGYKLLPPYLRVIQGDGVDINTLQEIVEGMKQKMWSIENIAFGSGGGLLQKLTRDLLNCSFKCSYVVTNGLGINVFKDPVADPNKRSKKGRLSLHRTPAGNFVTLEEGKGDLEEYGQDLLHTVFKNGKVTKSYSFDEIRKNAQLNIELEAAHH

[10] = target: T1, Bromodomain-containing protein 4; assay: Inhibition of BRD4 BD2 (unknown origin) incubated for 120 mins by TR-FRET assay
[11] = target: T2, Nicotinamide phosphoribosyltransferase; assay: Inhibition of NAMPT in human Hep3B cells assessed as decrease in NAD+ level at 10 uM measured after 72 hrs by WST-8 assay; assay type: cell-based
[12] = tested on: Hep 3B2; assay: Downregulation of NAPRT level in human Hep3B cells at 1 to 10 uM measured after 72 hrs by immunoblot analysis; assay type: functional, cell-based; conditions: dose 1-10 µM
[13] = tested on: Hep 3B2; assay: Induction of cell cycle arrest at G0/G1 phase in human Hep3B cells at 5 uM measured after 72 hrs by PI/RNase staining based flow cytometry (reference value: 56.73 %); assay type: functional
[14] = tested on: Hep 3B2; assay: Induction of cell cycle arrest at S phase in human Hep3B cells at 1 uM measured after 72 hrs by PI/RNase staining based flow cytometry (reference value: 31.90 %); assay type: functional
[15] = tested on: Hep 3B2; assay: Induction of apoptosis in human Hep3B cells assessed as early apoptotic cells at 1 uM measured after 72 hrs by Annexin V-FITC/PI staining based flow cytometry (reference value: 2.13 %); assay type: functional
[16] = tested on: Hep 3B2; assay: Downregulation of NAMPT level in human Hep3B cells at 1 to 10 uM measured after 72 hrs by immunoblot analysis; assay type: functional, cell-based; conditions: dose 1-10 µM
[17] = tested on: Huh-7; assay: cells; conditions: Homo sapiens, Huh-7, 120 h
[18] = tested on: Hep 3B2; assay: Induction of cell cycle arrest at G0/G1 phase in human Hep3B cells at 10 uM measured after 72 hrs by PI/RNase staining based flow cytometry (reference value: 56.73 %); assay type: functional
[19] = tested on: Hep 3B2; assay: Antimigratory activity in human Hep3B cells measured upto 24 hrs by wound healing assay; assay type: functional, cell-based; conditions: dose 1-10 µM
[20] = tested on: Hep 3B2; assay: Induction of cell cycle arrest at G2/M phase in human Hep3B cells at 10 uM measured after 72 hrs by PI/RNase staining based flow cytometry (reference value: 11.37 %); assay type: functional
[21] = tested on: Hep 3B2; assay: Induction of apoptosis in human Hep3B cells assessed as early apoptotic cells at 5 uM measured after 72 hrs by Annexin V-FITC/PI staining based flow cytometry (reference value: 2.13 %); assay type: functional
[22] = tested on: HCCLM3; assay: In vivo inhibition of NAMPT in human HCCLM3 cells xenografted in BALB/c nude mouse assessed as reduction in NAD+ level in tumor tissue administered intraperitoneally for 27 days; assay type: functional, organism-based; conditions: dose 40-80 mg/kg, route ip, time 27.0 day
[23] = tested on: Hep 3B2; assay: Induction of cell cycle arrest at S phase in human Hep3B cells at 10 uM measured after 72 hrs by PI/RNase staining based flow cytometry (reference value: 31.90 %); assay type: functional
[24] = tested on: Hep 3B2; assay: Antiproliferative activity against NMN/NAMN-treated human Hep3B cells incubated for 120 hrs by MTT assay; assay type: functional, cell-based
[25] = tested on: HCCLM3; assay: Antiproliferative activity against NMN/NAMN-treated human HCCLM3 cells incubated for 120 hrs by MTT assay; assay type: functional, cell-based
[26] = tested on: Hep 3B2; assay: Induction of apoptosis in human Hep3B cells assessed as viable cells at 1 uM measured after 72 hrs by Annexin V-FITC/PI staining based flow cytometry (reference value: 94.08 %); assay type: functional; conditions: read-out: Activity
[27] = target: T1, Bromodomain-containing protein 4; assay: Inhibition of BRD4 in human Hep3B cells assessed as decrease in YAP1 level at 1 to 10 uM measured after 72 hrs by immunoblot analysis; assay type: cell-based; conditions: dose 1-10 µM
[28] = target: Bromodomain-containing protein 3 (Homo sapiens, UniProt Q15059); assay: Inhibition of BRD3 BD1/2 (unknown origin) incubated for 120 mins by TR-FRET assay
Bromodomain-containing protein 3, sequence (Q15059 whole entry): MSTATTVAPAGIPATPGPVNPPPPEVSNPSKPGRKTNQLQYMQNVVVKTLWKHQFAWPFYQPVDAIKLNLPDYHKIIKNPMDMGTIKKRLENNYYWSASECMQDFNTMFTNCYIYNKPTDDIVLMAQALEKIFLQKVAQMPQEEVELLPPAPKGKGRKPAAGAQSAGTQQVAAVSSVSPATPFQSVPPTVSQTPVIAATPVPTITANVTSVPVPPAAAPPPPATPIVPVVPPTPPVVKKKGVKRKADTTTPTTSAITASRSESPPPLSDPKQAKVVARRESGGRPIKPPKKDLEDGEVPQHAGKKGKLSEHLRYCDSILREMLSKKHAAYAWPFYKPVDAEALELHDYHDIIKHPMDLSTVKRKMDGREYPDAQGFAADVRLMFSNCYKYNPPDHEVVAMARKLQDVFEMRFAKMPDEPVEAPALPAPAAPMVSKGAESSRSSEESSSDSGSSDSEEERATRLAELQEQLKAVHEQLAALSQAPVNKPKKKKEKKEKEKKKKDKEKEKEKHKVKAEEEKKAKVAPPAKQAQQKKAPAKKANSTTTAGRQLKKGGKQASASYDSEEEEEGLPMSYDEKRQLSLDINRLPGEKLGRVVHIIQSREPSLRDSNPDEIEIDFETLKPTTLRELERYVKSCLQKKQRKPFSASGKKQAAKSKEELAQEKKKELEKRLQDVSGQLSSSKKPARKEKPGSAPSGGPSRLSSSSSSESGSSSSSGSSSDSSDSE

[29] = Antiproliferative activity against human LX2 cells incubated for 120 hrs by MTT assay; assay type: toxicity, cell-based; conditions: LX-2 cells
[30] = target: T1, Bromodomain-containing protein 4; assay: Inhibition of BRD4 (unknown origin) incubated for 120 mins by TR-FRET assay
[31] = tested on: Hep 3B2; assay: Induction of apoptosis in human Hep3B cells assessed as viable cells at 5 uM measured after 72 hrs by Annexin V-FITC/PI staining based flow cytometry (reference value: 94.08 %); assay type: functional; conditions: read-out: Activity
[32] = tested on: Hep 3B2; assay: Induction of apoptosis in human Hep3B cells assessed as necrotic cells at 5 uM measured after 72 hrs by Annexin V-FITC/PI staining based flow cytometry (reference value: 2.74 %); assay type: functional
[33] = tested on: HCCLM3; assay: Antiproliferative activity against NAMN-treated human HCCLM3 cells incubated for 120 hrs by MTT assay; assay type: functional, cell-based
[34] = tested on: HCCLM3; assay: Antiproliferative activity against NMN-treated human HCCLM3 cells incubated for 120 hrs by MTT assay; assay type: functional, cell-based
[35] = tested on: Hep 3B2; assay: Antiproliferative activity against NMN-treated human Hep3B cells incubated for 120 hrs by MTT assay; assay type: functional, cell-based
[36] = tested on: Hep 3B2; assay: cells; conditions: Homo sapiens, Hep3B, 120 h
[37] = tested on: Hep 3B2; assay: Antiproliferative activity against NAMN-treated human Hep3B cells incubated for 120 hrs by MTT assay; assay type: functional, cell-based
[38] = tested on: Hep 3B2; assay: Induction of apoptosis in human Hep3B cells assessed as late apoptotic cells at 5 uM measured after 72 hrs by Annexin V-FITC/PI staining based flow cytometry (reference value: 1.05 %); assay type: functional
[39] = tested on: Hep 3B2; assay: Induction of apoptosis in human Hep3B cells assessed as viable cells at 10 uM measured after 72 hrs by Annexin V-FITC/PI staining based flow cytometry (reference value: 94.08 %); assay type: functional; conditions: Homo sapiens, Hep3B, read-out: Activity
[40] = tested on: Hep 3B2; assay: Induction of cell cycle arrest at G0/G1 phase in human Hep3B cells at 1 uM measured after 72 hrs by PI/RNase staining based flow cytometry (reference value: 56.73 %); assay type: functional

Cc1sc2c(c1C)C(c1ccc(Cl)cc1)=N[C@@H](CC(=O)NCCCNC(=O)/C=C/c1cccnc1)c1nnc(C)n1-2
Activity [1]: 2.69% | Activity [2]: Dose-Dependent Effect | Activity [3]: Dose-Dependent Effect | Activity [4]: 6.56% | Activity [5]: Non-Toxic | IC50 [6]: 5.44 µM | Activity [7]: 4.58% | IC50 [8]: 0.058 µM | inhibition [9]: Active | IC50 [10]: 0.041 µM | inhibition [11]: Active | Activity [12]: Active | Activity [13]: 71.08% | Activity [14]: 24.18% | Activity [15]: 8.83% | Activity [16]: Active | IC50 [17]: 6.49 µM | Activity [18]: 76.25% | Activity [19]: Dose-Dependent Effect | Activity [20]: 5.54% | Activity [21]: 14.49% | Activity [22]: Active | Activity [23]: 18.21% | Activity [24]: inactive | Activity [25]: inactive | viability at 1 µM [26]: 83.9% | inhibition [27]: Active | IC50 [28]: 0.122 µM | IC50 at 120 h [29]: 9.51 µM | IC50 [30]: 0.058 µM | viability at 5 µM [31]: 74.7% | Activity [32]: 4.6% | Activity [33]: inactive | Activity [34]: inactive | Activity [35]: inactive | IC50 [36]: 2.37 µM | Activity [37]: inactive | Activity [38]: 6.24% | viability at 10 µM [39]: 72.1% | Activity [40]: 66.06%
